How the values were obtained:
GST-Aurora A = molecular target: T1, GST-Aurora A (Homo sapiens, UniProt O14965); assay: Aurora A kinase biochemical mobility shift assay (Caliper LC3000 / Desktop Profiler); details: AK A (Aurora kinase A) inhibition
T1 construct: N-terminal GST fusion with full length Aurora A (1-403 amino acids); purchased Carna Biosciences 05-101
T1 sequence (O14965 1-403): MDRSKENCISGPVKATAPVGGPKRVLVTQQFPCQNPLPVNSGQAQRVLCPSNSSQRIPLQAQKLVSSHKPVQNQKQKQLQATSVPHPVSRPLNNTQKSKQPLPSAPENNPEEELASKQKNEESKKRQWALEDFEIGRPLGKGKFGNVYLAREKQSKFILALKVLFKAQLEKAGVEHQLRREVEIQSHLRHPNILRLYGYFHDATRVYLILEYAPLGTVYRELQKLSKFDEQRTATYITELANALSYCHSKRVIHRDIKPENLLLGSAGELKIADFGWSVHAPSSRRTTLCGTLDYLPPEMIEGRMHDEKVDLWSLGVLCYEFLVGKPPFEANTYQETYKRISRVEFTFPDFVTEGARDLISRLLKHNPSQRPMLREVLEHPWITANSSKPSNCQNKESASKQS
Experimental: (§1) The Aurora assays described here are performed on two Caliper Life Sciences systems: the LC3000 and the Desktop Profiler. The RON kinase assays are performed on the Desktop Profiler only. These provide data on enzyme activity via measurement of the relative amounts of phosphorylated or unphosphorylated fluorescently labelled substrate peptide at the end of an enzymatic reaction. These different states of peptide are resolved by applying a potential difference across the sample. The presence of the charged phosphate group on the product (as opposed to the substrate) causes a different peptide mobility between the two peptides. This is visualized by excitation of the fluorescent label on the substrate and product peptides and represented as peaks within the analysis software.
In order to measure inhibitor activity of Aurora A inhibitors in the Caliper Life Sciences LC3000, a TTP Mosquito liquid handling instrument is used to place 0.25 ul of the appropriate concentration of inhibitor in 100% DMSO (for a dose response curve calculation) into each well of a 384-well plate. To this reaction components are added to a final volume of 25 ul: • 0.067 ng/ul GST-Aurora A (Carna Biosciences 05-101. N-terminal GST fusion with full length Aurora A (1-403 amino acids), accession number NP_940835.1). • 15 uM ATP (Fluka, 02055) • 1 mM DTT (Sigma, D0632) • 1 mM MgCl2 (Sigma, M1028) • 1 uM substrate peptide (sequence FITC-LRRASLG-(CONH2), synthesized by Tufts Peptide Synthesis service. • 100 mM HEPES pH 7.5 (Calbiochem, 391338) • 0.015% Brij-35 (Sigma, B4184)
The reaction is incubated for 90 min at 25 C, and then stopped by the addition of 70 ul of Stop buffer (100 mM HEPES pH 7.5, 0.015% Brij-35, 10 mM EDTA (Sigma, E7889)).
The plate is read on a Caliper LC3000 in an Off-Chip mobility shift assay format, using the following parameters for a 12-sipper chip: screening pressure −1.8 psi, upstream voltage −2700, downstream voltage −1000. These conditions cause unphosphorylated substrate and phosphorylated product peptide to resolve as separate peaks allowing direct measurement of percentage of conversion of substrate to product. The percent conversion can be plotted against concentration of inhibitor to produce a sigmoidal dose response curve, from which an IC50 can be calculated using XLFit for Microsoft Excel.
(§2) The Desktop Profiler utilizes the same priniciple as the LC3000 for calculating percentage conversion of a substrate to product. Caliper Life Sciences provides proprietary flash frozen pre-made 384 well plates containing selected kinases. Each column in the 384 well plate contains a particular selected kinase. A second plate, the ‘substrate plate’ contains a mix of fluorescently labeled peptide substrate and ATP. These are arranged in columns so that transfer for substrate plate to enzyme plate provides the correct enzyme with the correct substrate/ATP concentration. Compounds are added to a thawed enzyme plate in the desired format, in single concentrations. Reactions are initiated by transfer of the substrate/ATP mix from the substrate plate. The enzyme plate is incubated for 90 minutes at 25 C. The reaction is stopped by addition of 70 ul of Stop Buffer (100 mM HEPES pH 7.5, 0.015% Brij-35, 10 mM EDTA (Sigma, E7889)).
(§3) Reading of the plate in the Profiler is identical to the LC3000, and the ratio between substrate and product peaks provides the activity of the enzyme in that well. This is best represented by a plate heat map which colors each well by percent inhibition as compared to positive and negative controls (no inhibitors and no ATP respectively).

RON kinase = molecular target: T2, RON kinase (Homo sapiens, UniProt Q04912); assay: RON kinase biochemical mobility shift assay (Caliper Desktop Profiler); details: RON kinase inhibition
T2 construct: purchased Caliper Life Sciences
Experimental: as §1, §2, §3

normal human cell growth = details: in vitro, normal human cells vs tumor cells of various origins; cited from earlier work

T2 sequence (Q04912 25-1400): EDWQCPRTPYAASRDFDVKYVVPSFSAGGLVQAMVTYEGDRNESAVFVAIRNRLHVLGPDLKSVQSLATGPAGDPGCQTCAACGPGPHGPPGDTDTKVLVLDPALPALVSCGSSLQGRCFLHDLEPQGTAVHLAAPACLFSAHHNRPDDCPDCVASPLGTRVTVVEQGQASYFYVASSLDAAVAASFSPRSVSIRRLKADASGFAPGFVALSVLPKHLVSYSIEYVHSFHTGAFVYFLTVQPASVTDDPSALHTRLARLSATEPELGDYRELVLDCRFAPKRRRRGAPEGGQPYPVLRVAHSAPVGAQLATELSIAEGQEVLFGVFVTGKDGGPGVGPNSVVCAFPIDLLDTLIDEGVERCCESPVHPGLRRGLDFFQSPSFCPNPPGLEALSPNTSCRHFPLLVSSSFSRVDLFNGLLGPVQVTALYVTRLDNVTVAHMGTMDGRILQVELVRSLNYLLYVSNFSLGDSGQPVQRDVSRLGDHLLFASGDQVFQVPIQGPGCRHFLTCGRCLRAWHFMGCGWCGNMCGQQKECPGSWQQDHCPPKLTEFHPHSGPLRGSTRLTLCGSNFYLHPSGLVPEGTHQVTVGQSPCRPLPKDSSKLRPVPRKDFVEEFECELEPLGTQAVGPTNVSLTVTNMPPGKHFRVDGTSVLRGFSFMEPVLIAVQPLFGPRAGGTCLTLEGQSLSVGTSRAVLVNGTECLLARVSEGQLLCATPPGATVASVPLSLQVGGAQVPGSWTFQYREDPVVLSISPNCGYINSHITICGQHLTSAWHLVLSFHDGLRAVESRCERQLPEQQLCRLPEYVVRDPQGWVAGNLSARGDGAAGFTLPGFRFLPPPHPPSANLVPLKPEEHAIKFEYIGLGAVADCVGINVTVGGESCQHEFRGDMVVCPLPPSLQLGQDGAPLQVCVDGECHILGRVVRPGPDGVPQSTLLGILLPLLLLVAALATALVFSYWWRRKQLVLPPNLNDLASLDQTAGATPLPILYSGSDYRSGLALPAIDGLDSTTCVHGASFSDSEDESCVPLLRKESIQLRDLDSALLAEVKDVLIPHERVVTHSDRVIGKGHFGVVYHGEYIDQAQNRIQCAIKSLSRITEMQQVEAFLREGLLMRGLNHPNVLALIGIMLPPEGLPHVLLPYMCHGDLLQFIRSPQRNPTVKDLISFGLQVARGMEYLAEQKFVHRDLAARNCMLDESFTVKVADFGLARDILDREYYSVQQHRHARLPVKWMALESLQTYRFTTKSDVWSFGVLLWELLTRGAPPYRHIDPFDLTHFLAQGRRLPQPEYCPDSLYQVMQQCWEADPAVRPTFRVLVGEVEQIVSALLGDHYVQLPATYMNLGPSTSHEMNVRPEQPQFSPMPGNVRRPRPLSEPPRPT

| Structure (SMILES) | IC50 (GST-Aurora A) | IC50 (RON kinase) | fold less effective at inhibiting normal human cell growth than tumor cell proliferation (normal human cell growth) |
| --- | --- | --- | --- |
| O=C1NCc2c(Oc3ccc(NC(=O)c4cc(Cl)cnc4Cl)cc3F)ccnc2N1 [Example 65, 2,5-dichloro-N-{3-fluoro-4-[(2-oxo-1,2,3,4-tetrahydropyrido[2,3-d]pyrimidin-5-yl)oxy]phenyl}-nicotinamide] | 10 to 100 nM | 10 to 100 nM | – |
| O=C1NCc2c(Oc3ccc(NC(=O)c4cccc(Br)c4)cc3F)ccnc2N1 [Example 66, 3-bromo-N-{3-fluoro-4-[(2-oxo-1,2,3,4-tetrahydropyrido[2,3-d]pyrimidin-5-yl)oxy]phenyl}-benzamide] | 10 to 100 nM | 10 to 100 nM | – |
| O=C(Nc1cccc(Cl)c1)Nc1ccc(Oc2ccnc3c2CNC(=O)N3)c(F)c1 [Example 67, N-(3-chlorophenyl)-N′-{3-fluoro-4-[(2-oxo-1,2,3,4-tetrahydropyrido[2,3-d]pyrimidin-5-yl)oxy]phenyl}urea] | 10 to 100 nM | 10 to 100 nM | – |
| Nc1nc(Nc2ccc(S(N)(=O)=O)cc2)nn1C(=O)c1c(F)cccc1F [JNJ-7706621] | – | – | about 10 fold |

Second part, led by results:

| IC50 (GST-Aurora A) | IC50 (RON kinase) | Structure (SMILES) | fold less effective at inhibiting normal human cell growth than tumor cell proliferation (normal human cell growth) |
| --- | --- | --- | --- |
| 100 to 1000 nM | 100 to 1000 nM | O=C1NCc2c(Oc3ccc(NS(=O)(=O)c4ccccc4F)cc3F)ccnc2N1 [Example 70, 2-fluoro-N-{3-fluoro-4-[(2-oxo-1,2,3,4-tetrahydropyrido[2,3-d]pyrimidin-5-yl)oxy]phenyl}benzenesulfonamide] | – |
| 100 to 1000 nM | 100 to 1000 nM | COc1cccc(S(=O)(=O)Nc2ccc(Oc3ccnc4c3CNC(=O)N4)c(F)c2)c1 [Example 71, N-{3-fluoro-4-[(2-oxo-1,2,3,4-tetrahydropyrido[2,3-d]pyrimidin-5-yl)oxy]phenyl}-3-methoxybenzenesulfonamide] | – |

— patent US8569295B2, “Bicyclic urea compounds” (Merck Patent GmbH, priority 2009, dated 2013)
